The test addresses T1, human mAChR M1 (Homo sapiens, UniProt P11229).
T1 sequence (P11229 1-460): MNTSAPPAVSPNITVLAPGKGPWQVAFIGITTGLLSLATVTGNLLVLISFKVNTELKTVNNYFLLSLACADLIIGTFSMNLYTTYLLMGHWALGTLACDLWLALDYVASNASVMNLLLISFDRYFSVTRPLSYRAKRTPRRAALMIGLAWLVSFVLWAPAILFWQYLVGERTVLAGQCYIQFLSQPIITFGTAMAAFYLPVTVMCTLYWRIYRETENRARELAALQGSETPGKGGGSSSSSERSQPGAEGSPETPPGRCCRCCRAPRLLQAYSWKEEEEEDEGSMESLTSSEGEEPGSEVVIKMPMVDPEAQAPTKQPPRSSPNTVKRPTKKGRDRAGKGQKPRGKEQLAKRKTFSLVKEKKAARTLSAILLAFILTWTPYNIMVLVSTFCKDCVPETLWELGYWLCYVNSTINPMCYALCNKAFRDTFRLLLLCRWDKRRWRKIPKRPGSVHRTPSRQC
As to the kind of experiment: mAChR M1 cell-based functional assay: calcium mobilization, positive allosteric modulator mode (increase in EC20 acetylcholine response). To be noted: for Emax: read-out: Human M1 Emax (%). Put shortly:
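PAM potency reflects the concentration-dependent increase in calcium response to an EC20 acetylcholine challenge, given 144 s into a 300 s read after compound addition at 4 s (EC80 follows at 230 s). Cells were hM1-expressing CHO-K1, loaded 50 min with Fluo-4 AM. Curves used 11 points at 1:3 dilutions and four-parameter logistic fitting.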
Background: Calcium flux is commonly read through the fluorescence of an indicator in the cells.

The mark [1] stands for this setting: Table 2, human M1, read-out: Human M1 EC50.
Where [2] appears, read: Table 1, mAChR M1 cell-based functional assay, PAM mode, species not given, read-out: EC50.

Each structure is given as a SMILES string. Read-outs that look alike come from different tables or passages of the source.

Usually EC50 stands for the concentration that produces a half-maximal response. By Emax is commonly meant the greatest response seen or fitted, relative to the assay's reference. Take `Cn1ccc2nc(C(=O)N[C@@H]3CCOC3)cc(Cc3ccc(-c4cscn4)cc3)c21` [Compound 465, 1-methyl-N-[(3R)-tetrahydrofuran-3-yl]-7-[(4-thiazol-4-ylphenyl)methyl]pyrrolo[3,2-b]pyridine-5-carboxamide]: under setting [1], the 50% effective concentration (EC50) was found to be 1870 nM. Further, the Emax (Table 2, human M1) was found to be 72%.

As to `O=C(N[C@H]1CCOC[C@@H]1O)c1cc(Cc2ccc(-c3cscn3)cc2)c2sccc2n1` [Compound 215, N-[(3R,4S)-3-hydroxytetrahydropyran-4-yl]-7-[(4-thiazol-4-ylphenyl)methyl]thieno[3,2-b]pyridine-5-carboxamide], the concentration giving a half-maximal response (EC50) under setting [1] was 10.1 nM. Moreover, the maximal effect (Emax) (Table 2, human M1) stood at 72.7%.

Consider `Cc1nn(C)c(C)c1-c1ccc(Cc2cc(C(=O)NC3CCOCC3)nc3ccsc23)cc1` [Compound 243, N-tetrahydropyran-4-yl-7-[[4-(1,3,5-trimethylpyrazol-4-yl)phenyl]methyl]thieno[3,2-b]pyridine-5-carboxamide], for which, under setting [1], the EC50 was above 10000 nM. The maximum response (Emax) (Table 2, human M1) is 17.9%.

Regarding `Cc1ccc(Cc2cc(C(=O)N[C@@H]3CCCC[C@H]3O)nc3c(C)csc23)cn1` [Compound 103, N-[(1R,2R)-2-hydroxycyclohexyl]-3-methyl-7-[(6-methyl-3-pyridyl)methyl]thieno[3,2-b]pyridine-5-carboxamide], the 50% effective concentration (EC50) under setting [1] amounted to 233 nM. In addition, the maximal effect (Emax) (Table 2, human M1) stood at 89.3%.

For the molecule `CC1CC(NC(=O)c2cc(Cc3ccc(-c4cnn(C)c4)nc3)c3sccc3n2)CC(C)O1` (stereo not drawn) [Compound 335, N-(2,6-dimethyltetrahydropyran-4-yl)-7-[[6-(1-methylpyrazol-4-yl)-3-pyridyl]methyl]thieno[3,2-b]pyridine-5-carboxamide], the EC50 under setting [1] came out at 158 nM. The Emax (Table 2, human M1) was 83.6%.

In the case of `Cn1ccc(-c2ccc(Cc3cc(C(=O)NC4CC(F)(F)C4)nc4ccn(C)c34)cn2)n1` [Compound 511, N-(3,3-difluorocyclobutyl)-1-methyl-7-[[6-(1-methylpyrazol-3-yl)-3-pyridyl]methyl]pyrrolo[3,2-b]pyridine-5-carboxamide;], under setting [1], the EC50 was determined as 1770 nM. For the same molecule, the maximal effect (Emax) (Table 2, human M1) amounted to 66.1%.

`Cn1cc(-c2ccc(Cc3cc(C(=O)N[C@H]4CCCC[C@@H]4O)nc4ccn(C)c34)cn2)cn1` [Compound 469, N-[(1S,2S)-2-hydroxycyclohexyl]-1-methyl-7-[[6-(1-methylpyrazol-4-yl)-3-pyridyl]methyl]pyrrolo[3,2-b]pyridine-5-carboxamide]: the EC50 under setting [1] amounted to 29.8 nM. In addition, the Emax (Table 2, human M1) stood at 72.3%.

Regarding `Cc1csc2c(Cc3ccc(-n4cccn4)cc3)cc(C(=O)NC3CCCNC3=O)nc12` (stereo not drawn) [Compound 122, 3-methyl-N-(2-oxo-3-piperidyl)-7-[(4-pyrazol-1-ylphenyl)methyl]thieno[3,2-b]pyridine-5-carboxamide], the half-maximal effective concentration (EC50) under setting [1] turned out to be 869 nM. Moreover, where the note is “Table 2, human M1”, the Emax came out at 80.4%.

Consider `Cn1cc(-c2ccc(Oc3cc(C(=O)N[C@H]4CCOC[C@@H]4O)nc4ccsc34)c(F)c2)cn1` [Compound 7], for which the EC50 under setting [2] amounted to 3260 nM.

Turning to `Cn1ccc2nc(C(=O)NC3COC3)cc(Cc3ccc(-c4cscn4)cc3)c21` [Compound 467, 1-methyl-N-(oxetan-3-yl)-7-[(4-thiazol-4-ylphenyl)methyl]pyrrolo[3,2-b]pyridine-5-carboxamide], the half-maximal effective concentration (EC50) under setting [1] stood at 2970 nM. The Emax (Table 2, human M1) is 61.2%.

As to `Cc1ncc(Cc2cc(C(=O)NC3CCCCC3)nc3ccsc23)s1` [Compound 134, N-cyclohexyl-7-[(2-methylthiazol-5-yl)methyl]thieno[3,2-b]pyridine-5-carboxamide], under setting [1], the concentration for a half-maximal effect (EC50) was determined as 3210 nM. The Emax (Table 2, human M1) was 37.6%.

Regarding `Cc1nn(C)cc1-c1ccc(Cc2cc(C(=O)N[C@H]3COCC[C@@H]3O)nc3ccsc23)cc1` [Compound 249, 7-[[4-(1,3-dimethylpyrazol-4-yl)phenyl]methyl]-N-[(3S,4S)-4-hydroxytetrahydropyran-3-yl]thieno[3,2-b]pyridine-5-carboxamide], the EC50 under setting [1] is above 10000 nM. Under “Table 2, human M1”, the maximum response (Emax) was found to be 42.1%.

Take `Cn1cc(-c2ccc(Cc3cc(C(=O)NC4CN(C5COC5)C4)nc4ccsc34)cn2)cn1` [Compound 364]: the EC50 under setting [1] was 832 nM. Moreover, the maximal response (Emax) (Table 2, human M1) was determined as 83.8%.

As to `Cc1csc2c(Cc3ccc(-n4cccn4)cc3)cc(C(=O)NC3CC4(COC4)C3)nc12` [Compound 315, 3-methyl-N-(2-oxaspiro[3.3]heptan-6-yl)-7-[(4-pyrazol-1-ylphenyl)methyl]thieno[3,2-b]pyridine-5-carboxamide], the concentration giving a half-maximal response (EC50) under setting [1] amounted to 475 nM. For the setting “Table 2, human M1”, the Emax was 82.3%.

For `O=C(N[C@H]1COCC[C@@H]1O)c1cc(Cc2ccc(-c3cscn3)cc2)c2sccc2n1` [Compound 216], the EC50 under setting [1] was 22 nM. The maximum response (Emax) (Table 2, human M1) came out at 81.2%.

For the molecule `Cn1ccc2nc(C(=O)N[C@H]3CCCOC3)cc(Cc3ccc(-c4cscn4)cc3)c21` [Compound 462, 1-methyl-N-[(3S)-tetrahydropyran-3-yl]-7-[(4-thiazol-4-ylphenyl)methyl]pyrrolo[3,2-b]pyridine-5-carboxamide], the EC50 under setting [1] was 2050 nM. For the same molecule, where the note is “Table 2, human M1”, the Emax stood at 67.9%.

As to `O=C(N[C@H]1CCOC[C@@H]1O)c1cc(Cc2c(F)cc(-c3cscn3)cc2F)c2sccc2n1` [Compound 270, 7-[(2,6-difluoro-4-thiazol-4-yl-phenyl)methyl]-N-[(3R,4S)-3-hydroxytetrahydropyran-4-yl]thieno[3,2-b]pyridine-5-carboxamide], the EC50 under setting [1] was 39.7 nM. In addition, for the setting “Table 2, human M1”, the maximal response (Emax) is 78.5%.

For `Cc1ccc(Oc2cc(C(=O)NC3CC(F)C3)nc3ccsc23)cn1` (stereo not drawn) [Compound 17, N-(3-fluorocyclobutyl)-7-[(6-methyl-3-pyridyl)oxy]thieno[3,2-b]pyridine-5-carboxamide], the EC50 was above 10000 nM.

In the case of `Cc1ccc(Oc2cc(C(=O)NC3CCCNC3=O)nc3ccsc23)cn1` (stereo not drawn) [Compound 29, 7-[(6-methyl-3-pyridyl)oxy]-N-(2-oxo-3-pipendyl)thieno[3,2-b]pyridine-5-carboxamide], under setting [2], the EC50 is above 10000 nM.

Regarding `Cn1ncc2nc(C(=O)NCC3CCO3)cc(Cc3ccc(-c4cscn4)cc3)c21` (stereo not drawn) [Compound 494, 1-methyl-N-(oxetan-2-ylmethyl)-7-[(4-thiazol-4-ylphenyl)methyl]pyrazolo-[4,3-b]pyridine-5-carboxamide], under setting [1], the EC50 worked out at 5020 nM. Besides, the Emax (Table 2, human M1) is 52.2%.

Regarding `Cn1cc(-c2ccc(Cc3cc(C(=O)NC4CCOCC4)nc4ccsc34)cc2)cn1` [Compound 268, 7-[[4-(1-methylpyrazol-4-yl)phenyl]methyl]-N-tetrahydropyran-4-yl-thieno[3,2-b]pyridine-5-carboxamide], the EC50 under setting [1] is 59.5 nM. Moreover, the Emax (Table 2, human M1) came to 70.1%.

Take `COCCCNC(=O)c1cc(Cc2ccc(-n3cccn3)cc2)c2sccc2n1` [Compound 430, N-(3-methoxypropyl)-7-[(4-pyrazol-1-ylphenyl)methyl]thieno[3,2-b]pyridine-5-carboxamide]: the 50% effective concentration (EC50) under setting [1] was 1080 nM. In addition, the maximal response (Emax) (Table 2, human M1) amounted to 72.9%.

Regarding `Cc1ccc(Cc2cc(C(=O)N[C@H]3CCCC[C@@H]3O)nc3ccsc23)cn1` [Compound 1, N-((1S,2S)-2-Hydroxycyclohexyl)-7-((6-methylpyridin-3-yl)methyl)thieno[3,2-b]pyridine-5-carboxamide], the EC50 came to 87 nM.

Consider `Cn1ccc(-c2ccc(Cc3cc(C(=O)NC4CN(C5COC5)C4)nc4ccsc34)cn2)n1` [Compound 425], for which the EC50 under setting [1] stood at 5140 nM. Further, the Emax (Table 2, human M1) was 65.8%.

As to `Cc1ncc(Cc2cc(C(=O)N[C@@H]3CCCC[C@H]3O)nc3ccsc23)cn1` [Compound 127, N-[(1R,2R)-2-hydroxycyclohexyl]-7-[(2-methylpyrimidin-5-yl)methyl]thieno[3,2-b]pyridine-5-carboxamide], under setting [1], the EC50 is above 10000 nM. Moreover, the Emax (Table 2, human M1) was 79.2%.

In the case of `Cn1ccc2nc(C(=O)N[C@H]3CCOC[C@@H]3O)cc(Cc3ccc(-c4nccs4)cc3)c21` [Compound 478, N-[(3R,4S)-3-hydroxytetrahydropyran-4-yl]-1-methyl-7-[(4-thiazol-2-ylphenyl)methyl]pyrrolo[3,2-b]pyridine-5-carboxamide], under setting [1], the EC50 worked out at 6.24 nM. Moreover, the maximum response (Emax) (Table 2, human M1) turned out to be 53.2%.

For `CO[C@@H]1CCCC[C@H]1NC(=O)c1cc(Cc2ccc(C(F)(F)F)nc2)c2sccc2n1` [Compound 93, N-[(1R,2R)-2-methoxycyclohexyl]-7-[[6-(trifluoromethyl)-3-pyridyl]methyl]thieno[3,2-b]pyridine-5-carboxamide], the EC50 under setting [1] amounted to 6720 nM. For the same molecule, the Emax (Table 2, human M1) turned out to be 70.3%.

With `O=C(N[C@H]1CCC[C@@H]1O)c1cc(Cc2ccc(-c3cscn3)cc2)c2sccc2n1` [Compound 206, N-[(1S,2S)-2-hydroxycyclopentyl]-7-[(4-thiazol-4-ylphenyl)methyl]thieno[3,2-b]pyridine-5-carboxamide], the EC50 under setting [1] turned out to be 38.8 nM. In addition, the Emax (Table 2, human M1) is 87%.

As to `Cc1ccc(Cc2cc(C(=O)NC3CCCNC3=O)nc3ccsc23)cn1` (stereo not drawn) [Compound 66, 7-[(6-methyl-3-pyridyl)methyl]-N-(2-oxo-3-piperidyl)thieno[3,2-b]pyridine-5-carboxamide], under setting [1], the concentration giving a half-maximal response (EC50) came out at 7410 nM. In addition, the Emax (Table 2, human M1) is 93%.

The values are drawn from US11111251B2, “Positive allosteric modulators of the muscarinic acetylcholine receptor M1” (Vanderbilt University, priority 2016, dated 2021).
